Experimental data taken from article PMC3831706 (British Journal of Pharmacology, 2013).

Target: T1, 5-HT3A receptor (Homo sapiens, UniProt P46098)
T1 construct: gene HTR3A
T1 sequence (P46098 24-478): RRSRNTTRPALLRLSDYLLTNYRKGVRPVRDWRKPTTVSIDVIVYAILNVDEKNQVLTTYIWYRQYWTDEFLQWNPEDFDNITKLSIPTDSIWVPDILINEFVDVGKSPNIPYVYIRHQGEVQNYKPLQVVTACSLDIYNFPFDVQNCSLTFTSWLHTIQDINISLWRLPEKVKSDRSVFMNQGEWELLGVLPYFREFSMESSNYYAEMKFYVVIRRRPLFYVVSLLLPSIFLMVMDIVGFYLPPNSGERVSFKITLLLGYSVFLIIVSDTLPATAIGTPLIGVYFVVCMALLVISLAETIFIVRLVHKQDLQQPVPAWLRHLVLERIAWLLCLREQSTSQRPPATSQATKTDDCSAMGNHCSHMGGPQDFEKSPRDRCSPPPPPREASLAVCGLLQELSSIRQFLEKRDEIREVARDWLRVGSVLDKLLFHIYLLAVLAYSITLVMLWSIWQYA
Experiment: cell-based

SMILES: O=C1c2cccc3c2[C@H](CCC3)CN1[C@@H]1CN2CCC1CC2 [PAL, palonosetron]
- Ki: 0.22 ± 0.07 nM
